What is called TGI is the concentration at which net growth stops. Higher therefore signals less potent growth arrest.

TGI data for 22 molecules are collected here from PubChem BioAssay (NCI).

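Dose response: 5 concentrations. Exposure: 48 h. Format: 96-well plates. Endpoint: linear interpolation; highest concentration if not reached. TGI denotes the concentration required for complete inhibition of growth.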 Where a SMILES comes first, the peptide text is derived from it. [ ]: non-standard residue; d: D form. The star is where a group is joined. ξ: configuration not given here. ξF = NC(Cc1ccccc1)C(=O)O; Cbz = O=C(OCc1ccccc1)*; Aib = CC(C)(N)C(=O)O; NHNH2 = NN*

Some test systems named below: HCT-116 colon; HCT-15 colon; HT29 colon; MALME-3M melanoma; MDA-MB-435; OVCAR-4 ovarian; RXF 393 renal; SK-MEL-28 melanoma; SNB-75 CNS.
Common to all, as to test: DTP human tumour cell line panel, 48 h

On to `C=C=C(CC1CCCCC1=O)S(=O)(=O)c1ccccc1` (configuration not stated), for which the TGI in the experiment with HCT-116 colon is greater than 4.94 µM; in the experiment with HCT-15 colon, greater than 10 µM; in the experiment with HT29 colon it was greater than 10 µM; in the experiment with MALME-3M melanoma, greater than 10 µM; in the experiment on MDA-MB-435 it was greater than 10 µM; in the experiment on OVCAR-4 ovarian it was greater than 10 µM. For the same molecule, the concentration for total growth inhibition (TGI) with RXF 393 renal, with SK-MEL-28 melanoma and with SNB-75 CNS was greater than 10 µM each time.
In the case of `Cc1cc(S(=O)(=O)Nc2n[nH]c(Nc3ccc(Cl)cc3)n2)c(S)cc1Cl`, the total growth inhibition concentration (TGI) with HCT-116 colon, with HCT-15 colon, in the experiment with HT29 colon, in the experiment with MALME-3M melanoma, in the experiment with MDA-MB-435 and in the experiment on OVCAR-4 ovarian was greater than 100 µM throughout. Also, the TGI in the experiment on RXF 393 renal, in the experiment on SK-MEL-28 melanoma and with SNB-75 CNS was greater than 100 µM in each case.
On to `N=C1OC(CN2CCN(c3ccccc3)CC2)CN1C(=S)Nc1ccccc1` (configuration not stated), for which the TGI in the experiment on HCT-116 colon, with HCT-15 colon, in the experiment with HT29 colon, with MALME-3M melanoma, with MDA-MB-435 and with OVCAR-4 ovarian was greater than 100 µM throughout. Moreover, the TGI in the experiment with RXF 393 renal, in the experiment on SK-MEL-28 melanoma and in the experiment on SNB-75 CNS was greater than 100 µM each time.
For `CC(O)(Cc1ccccc1C#N)Cc1ccccc1C#N`, the TGI in the experiment on HCT-116 colon, in the experiment with HCT-15 colon, in the experiment with HT29 colon, in the experiment with MALME-3M melanoma, in the experiment on MDA-MB-435 and in the experiment with OVCAR-4 ovarian was greater than 100 µM throughout. The concentration for total growth inhibition (TGI) in the experiment on RXF 393 renal is greater than 100 µM; in the experiment on SK-MEL-28 melanoma, greater than 100 µM; in the experiment with SNB-75 CNS, 98.9 µM.
Take `COC(=O)/C(C#N)=C(\Nc1ccccc1)N1CCOCC1`: the TGI with HCT-116 colon, in the experiment with HCT-15 colon, in the experiment with HT29 colon, in the experiment with MALME-3M melanoma, in the experiment with MDA-MB-435 and in the experiment with OVCAR-4 ovarian was greater than 100 µM each time. Besides, the TGI in the experiment with RXF 393 renal, in the experiment on SK-MEL-28 melanoma and with SNB-75 CNS was greater than 100 µM in each case.
As for `Cc1cn([C@@H]2C[C@@H]2CO)c(=O)[nH]c1=O`, the TGI in the experiment on HCT-116 colon, with HCT-15 colon, with HT29 colon, in the experiment with MALME-3M melanoma, in the experiment with MDA-MB-435 and in the experiment with OVCAR-4 ovarian was greater than 100 µM throughout. The TGI in the experiment on RXF 393 renal, in the experiment on SK-MEL-28 melanoma and with SNB-75 CNS was greater than 100 µM in each case.
As for `N#CC(C(=O)c1cccnc1Cl)c1nc2cc(C(F)(F)F)ccc2s1` (configuration not stated), the TGI in the experiment with HCT-116 colon was 90.3 µM; with HCT-15 colon, greater than 100 µM; with HT29 colon it was greater than 100 µM; in the experiment with MALME-3M melanoma, greater than 100 µM; in the experiment with MDA-MB-435, greater than 100 µM; in the experiment with OVCAR-4 ovarian, greater than 100 µM. Further, the concentration for total growth inhibition (TGI) in the experiment on RXF 393 renal, in the experiment with SK-MEL-28 melanoma and with SNB-75 CNS was greater than 100 µM each time.
`CN(C)c1ccc(C=Nc2ccc(-c3nc4ccccc4[nH]3)cc2)cc1`: the TGI in the experiment with HCT-116 colon, with HCT-15 colon, in the experiment on HT29 colon, in the experiment on MALME-3M melanoma, with MDA-MB-435 and in the experiment on OVCAR-4 ovarian was greater than 100 µM in each case. In addition, the TGI with RXF 393 renal is 80 µM; in the experiment on SK-MEL-28 melanoma, greater than 100 µM; in the experiment with SNB-75 CNS, greater than 100 µM.
As to `CC(ON(C(c1ccccc1)C(C)C)C(C)(C)C)c1ccccc1` (configuration not stated), the TGI with HCT-116 colon was 33.9 µM; in the experiment with HCT-15 colon it was greater than 100 µM; in the experiment with HT29 colon, 43.5 µM; in the experiment with MALME-3M melanoma it was 71.6 µM; with MDA-MB-435 it was 68.9 µM; in the experiment on OVCAR-4 ovarian, greater than 100 µM. The concentration for total growth inhibition (TGI) is 31.2 µM in the experiment on RXF 393 renal, 47.5 µM in the experiment on SK-MEL-28 melanoma and 42.9 µM in the experiment on SNB-75 CNS.
In the case of `S=c1[nH]nc(CNc2ccc(-c3n[nH]c(=S)n3-c3ccc(Cl)cc3)cc2)n1-c1ccc(Cl)cc1`, the total growth inhibition concentration (TGI) in the experiment with HCT-116 colon is 32.8 µM; with HCT-15 colon, greater than 100 µM; in the experiment on HT29 colon, 66.7 µM; with MALME-3M melanoma it was 59.9 µM; with MDA-MB-435, greater than 100 µM; in the experiment on OVCAR-4 ovarian, greater than 100 µM. Besides, the figures for the TGI with RXF 393 renal, in the experiment with SK-MEL-28 melanoma and in the experiment on SNB-75 CNS were greater than 100 µM, 64.2 µM and greater than 100 µM, respectively.
With `Cc1ccc(S(=O)(=O)NC(=O)NCCc2cnc[nH]2)cc1`, the TGI in the experiment on HCT-116 colon, in the experiment on HCT-15 colon, in the experiment with HT29 colon, with MALME-3M melanoma, with MDA-MB-435 and in the experiment on OVCAR-4 ovarian was greater than 100 µM throughout. The TGI in the experiment with RXF 393 renal, in the experiment on SK-MEL-28 melanoma and in the experiment on SNB-75 CNS was greater than 100 µM in each case.
With `O=C1NC(N2CCOCC2)=N/C1=C\c1ccc(Cl)cc1`, the TGI in the experiment with HCT-116 colon, in the experiment on HCT-15 colon, in the experiment with HT29 colon, in the experiment on MALME-3M melanoma, in the experiment with MDA-MB-435 and with OVCAR-4 ovarian was greater than 100 µM in each case. For the same molecule, the concentration for total growth inhibition (TGI) in the experiment on RXF 393 renal, in the experiment on SK-MEL-28 melanoma and with SNB-75 CNS was greater than 100 µM each time.
With `O=C1C[C@H](c2ccccc2)O[C@@H](c2ccccc2)C1`, the TGI in the experiment with HCT-116 colon, in the experiment with HCT-15 colon, with HT29 colon, in the experiment on MALME-3M melanoma, in the experiment on MDA-MB-435 and in the experiment with OVCAR-4 ovarian was greater than 100 µM each time. The TGI in the experiment with RXF 393 renal, in the experiment with SK-MEL-28 melanoma and in the experiment with SNB-75 CNS was greater than 100 µM throughout.
For `COc1ccc(C2N(c3ccc(F)cc3)C(=O)N3C(c4ccc(OC)cc4)N(c4ccc(F)cc4)C(=O)N23)cc1` (configuration not stated), the concentration for total growth inhibition (TGI) in the experiment with HCT-116 colon, in the experiment on HCT-15 colon, with HT29 colon, in the experiment on MALME-3M melanoma, with MDA-MB-435 and in the experiment on OVCAR-4 ovarian was greater than 100 µM throughout. The TGI in the experiment on RXF 393 renal, in the experiment on SK-MEL-28 melanoma and in the experiment on SNB-75 CNS was greater than 100 µM in each case.
As to `CC(C)OC(=O)c1ccc(CCC2=CC(=O)C=CC2=O)cc1`, the TGI was 27 µM with HCT-116 colon; 25.1 µM with HCT-15 colon; 33.1 µM with HT29 colon; 15.9 µM with MALME-3M melanoma; 39.8 µM with MDA-MB-435; 29.6 µM in the experiment on OVCAR-4 ovarian. The TGI was determined as 25.1 µM in the experiment with RXF 393 renal, 32.9 µM with SK-MEL-28 melanoma and 62.5 µM in the experiment with SNB-75 CNS.
On to `COc1ccc(N=NC(=O)NC(Cc2ccccc2)C(=O)O)cc1` (configuration not stated), for which the TGI in the experiment on HCT-116 colon, in the experiment on HCT-15 colon, in the experiment with HT29 colon, in the experiment with MALME-3M melanoma, in the experiment with MDA-MB-435 and in the experiment on OVCAR-4 ovarian was greater than 100 µM each time. In addition, the TGI in the experiment with RXF 393 renal, in the experiment on SK-MEL-28 melanoma and in the experiment on SNB-75 CNS was greater than 100 µM each time.
With `CN(C)CCCN1C(=S)N(CCCN(C)C)c2c3ccccc3nc3c([N+](=O)[O-])ccc1c23`, the TGI in the experiment with HCT-116 colon was determined as 16 µM; in the experiment on HCT-15 colon, 21.9 µM; with HT29 colon it was 12 µM; with MALME-3M melanoma, 6.69 µM; with MDA-MB-435 it was 23.7 µM; in the experiment with OVCAR-4 ovarian it was 27.9 µM. Moreover, the TGI in the experiment with RXF 393 renal amounted to 17.8 µM; in the experiment on SK-MEL-28 melanoma, 29.9 µM; with SNB-75 CNS it was 23.1 µM.
With `COc1cc(OC)c2c(c1)OC(c1ccccc1)CC2=O` (configuration not stated), the total growth inhibition concentration (TGI) in the experiment on HCT-116 colon, with HCT-15 colon, with HT29 colon, with MALME-3M melanoma, in the experiment on MDA-MB-435 and in the experiment on OVCAR-4 ovarian was greater than 10 µM each time. For the same molecule, the TGI in the experiment with RXF 393 renal, with SK-MEL-28 melanoma and in the experiment on SNB-75 CNS was greater than 10 µM each time.
For `CN(C)CCCc1cccc2[nH]c3c(c12)CN(C)CC3`, the TGI with HCT-116 colon, in the experiment on HCT-15 colon, in the experiment on HT29 colon, in the experiment on MALME-3M melanoma, in the experiment on MDA-MB-435 and with OVCAR-4 ovarian was greater than 100 µM each time. Further, the TGI with RXF 393 renal, in the experiment on SK-MEL-28 melanoma and in the experiment with SNB-75 CNS was greater than 100 µM throughout.
As for `O=C1/C(=C\Oc2ccc(F)cc2)N2CCC1CC2`, the TGI with HCT-116 colon, in the experiment with HCT-15 colon, in the experiment on HT29 colon, with MALME-3M melanoma, in the experiment with MDA-MB-435 and in the experiment on OVCAR-4 ovarian was greater than 100 µM in each case. In addition, the TGI in the experiment on RXF 393 renal, in the experiment on SK-MEL-28 melanoma and in the experiment on SNB-75 CNS was greater than 100 µM each time.
Take `O=C(NC1(c2cc3ccccc3s2)CCCCC1)C1CCC1`: the TGI in the experiment on HCT-116 colon, in the experiment on HCT-15 colon, with HT29 colon, in the experiment on MALME-3M melanoma, in the experiment on MDA-MB-435 and with OVCAR-4 ovarian was greater than 100 µM in each case. In addition, the TGI with RXF 393 renal, with SK-MEL-28 melanoma and in the experiment on SNB-75 CNS was greater than 100 µM throughout.
Regarding `CC(C)(NC(=O)OCc1ccccc1)C(=O)NC(Cc1ccccc1)C(=O)NN` (configuration not stated) (Cbz-[Aib]-[ξF]-NHNH2), the TGI with HCT-15 colon, in the experiment on HT29 colon, with MALME-3M melanoma, in the experiment on MDA-MB-435, in the experiment on OVCAR-4 ovarian and in the experiment with RXF 393 renal was greater than 100 µM each time. Further, the TGI with SK-MEL-28 melanoma and with SNB-75 CNS was greater than 100 µM in each case.
